Data published in US8853194B2, “Sterol derivatives and their synthesis and use” (priority 2009, dated 2014).
Values joined by “and” are separate entries in the source; they are usually repeats but may differ in a detail not shown here. Equal entries are not always repeated. Where two headings read alike, the source gives them in different places. Marks after values point to notes of the source that are not given here.

Key:
VEGF = conditions: 16 mg/kg (low dose group), OD at 450 nm
Procedure: Before taking tumors out, blood was collected by eye bleeding from mice in the four groups, i.e. the negative control group, the positive CTX control group, the high dose (32 mg/kg) group and the low dose (16 mg/kg) group.
1.1 Preparing reagents, samples and standards;
1.2 Adding the prepared samples and standards, and reacting for 90 minutes at 37° C.;
1.3 Washing the plate twice, adding biotinylated antibody working solution, and reacting for 60 minutes at 37° C.;
1.4 Washing the plate for three times, adding ABC working solution, and reacting for 30 minutes at 37° C.;
1.5 Washing the plate for five times, adding TMB color liquid, and reacting in dark for 15 minutes at 37° C.;
1.6 Adding TMB stop solution, and measuring OD value at 450 nm.

[1] = tested on: human immortalized fibroblast cell NIH3T3
Procedure: (§1) The human hepatoma cells HepG2, human lung cancer cells A549 and NIH3T3 cells were recovered, and subcultured in culture flasks. Once the cells grew to the logarithmic phase, the experiment can be started. The cells were digested by high-pressure filtered trypsin to prepare a cell-containing suspension, dyed for 3 minutes with 0.4% trypan blue, and then counted with the blood-cell counter (living cells were not colored, while dead cells were stained blue).
(§2) The three types of cells in logarithmic phase were seeded in 96-well plates with a density of 1×10^4/ml (200 μL/well), and then cultivated for 24 hours at 37° C. in 5% CO2 cultivable box. The culture media was aspirated and discarded. […] After cultivating for 24 hours and 48 hours, 100 ul supernatant was carefully aspirated and discarded, respectively. MTS (20 μl/well) was added and mixed evenly. The mixture was cultivated for 1 hour at 37° C. in 5% CO2 cultivable box. The absorbency at 492 nm was determined by quantitative Enzyme-linked immunosorbent assay (ELISA). The experiment was repeated for three times. The growth inhibition rate was calculated as follows. Growth Inhibition rate(%)=[(mean OD value of control group−mean OD value of treatment group)/mean OD value of control group]×100%

[2] = tested on: human hepatoma cell HepG2
Procedure: as §1, §2

[3] = tested on: human lung cancer cell A549
Procedure: as §1, §2

[4] = from LD50 and anti-tumor dose in mice
Text: I. Experiment Item: the anti-tumor therapeutic index of CL168

CAM vessels = test: CAM assay, effect on tumor angiogenesis; assay type: in vivo, German Roman embryonated eggs; conditions: 72 hours incubation
Procedure: A sterile gelatin sponge, previously made into disks with diameter of 5 mm by a hole puncher, was used as sample carrier. […] There were 3 dose groups, wherein 5 μl (low dose group, with a dose volume of 2 μg/embryo), 10 μl (middle dose group, with a dose volume of 4 μg/embryo), and 20 μl (high dose group, with a dose volume of 8 μg/embryo) of the solution were added respectively into gelatin sponge slices by a quantitative liquid transfer. The sponge slices were dried in the sterile environment.
A sterilized egg was placed into a 37° C. incubator with its air chamber upward. In the 7th day, the embryo was positioned on a super-clean bench and sterilized by ethanol, and then it was drilled by a dental drill to form a little hole in the top of the embryo. Egg shell and shell membrane around the hole were carefully removed to form an opening of about 1.2 cm×1.2 cm; after determining a sample-adding site, the air chamber membrane was carefully pricked at the separation place between the chamber and the yolk by a syringe needle; through the prick hole 1-2 drops of sterilized water was injected, which made the chamber membrane and the CAM membrane be separated; after gently removing the upper layer of the chamber membrane with forceps, the CAM membrane in the lower layer was exposed.
A drug-containing carrier was placed, at the junction area of the CAM membrane and the yolk sac membrane, on a site where vessels were less, and then sealed with sterilized transparent adhesive tape to continue to incubate for 72 hours.
After the incubation, the transparent adhesive tape stopped on the top of the air chamber was gently removed by forceps; a mixture of methanol/acetone (1:1, 1-2 ml) was gently added; the room temperature was remained constant for 10 minutes. Then, the CAM membrane was carefully peeled off and placed on a glass slide for observing and taking photos. The effect of the compound on angiogenesis was assessed by counting the numbers of large, middle, small blood vessels radiated by the carrier.

ICR mice = test: Intraperitoneal injection LD50 for mouse (KORBER's method); assay type: in vivo; conditions: for Animal deaths: 10 mice, in 7 days
Procedure: I. Experiment Item: Intraperitoneal injection LD50 for mouse (KORBER's method)
ICR mice (SPF grade), with a weight range of 18-22 g, provided by Vital River Laboratories (VRL) in Beijing, China, were used. There were 5 treatment groups in total, wherein 2000 mg/kg was the highest dose, and the others decreased to 0.8 times, i.e. 1600 mg/kg, 1280 mg/kg, 1024 mg/kg and 819.2 mg/kg. The mice were randomly divided into groups. Each group had 10 mice with half male and half female. Each mouse was introperitoneal injected (0.2 ml/10 g. Observed 3-7 days, a variety of animal responses and the amount of dead mice in each group were recorded. LD50 and confidence limits were calculated by the modified Karber method(Korbor) according to the mortality rate of animals in each group.

Caspase 8 = conditions: 2.0 μg, HepG2 cells
Procedure: (§3) 2.1.1 HepG2 cells were digested by trypsin in the cell culture medium. The resulting mixture (6000 was centrifuged for 5 minutes at 4° C. to collect the cells. The supernatant was carefully aspirated and discarded. The remains were washed once with PBS, added to lysate (100 μl/2×10^6 cells); and then, after resuspending the precipitation, ice cracked for 15 minutes.
(§4) 2.1.2 The resulting mixture (16000 g) was centrifuged at 4° C. for 15 minutes.
(§5) 2.1.3 The supernatant was transferred into a centrifugal tube that was pre-cooled by ice bath.
(§6) 2.2.3 Incubating at 37° C. for 120 minutes, detecting Caspase 3 with A405;
(§7) 2.2.4 Adding Ac-IETD-PNA (2 mM) and Ac-LEHD-PNA (2 mM), respectively, for detecting Caspase 8, 9

Caspase 9 = conditions: 2.0 μg, HepG2 cells
Procedure: as §3, §4, §5, §6, §7

[5] = mice, intraperitoneal injection, modified Karber method

SMILES: CC(C)CCC[C@@H](C)[C@H]1CC[C@@H]2[C@]1(C)CC[C@H]1[C@]23C=C[C@]2(CC(=O)CC[C@]12C)OO3 [CL168-6, 5α,8α-cyclicobioxygen-6-cholesten-3-one]
- OD value of serum VEGF (VEGF): 0.2064 ± 0.0114^□
- 24 h Inhibition rate (%) NIH3T3 ([1]; 2.5 μg/ml): 3.87%
- 48 h Inhibition rate (%) NIH3T3 ([1]; 2.5 μg/ml): 0.75%
- 24 h Inhibition rate (%) NIH3T3 ([1]; 5.0 μg/ml): 5.69%
- 48 h Inhibition rate (%) NIH3T3 ([1]; 5.0 μg/ml): 1.97%
- 24 h Inhibition rate (%) NIH3T3 ([1]; 10.0 μg/ml): 8.45%
- 48 h Inhibition rate (%) NIH3T3 ([1]; 10.0 μg/ml): 5.37%
- 24 h Inhibition rate (%) HepG2 ([2]; 2.5 μg/ml): 52.85%
- 48 h Inhibition rate (%) HepG2 ([2]; 2.5 μg/ml): 59.83%
- 24 h Inhibition rate (%) HepG2 ([2]; 5.0 μg/ml): 58.51* %
- 48 h Inhibition rate (%) HepG2 ([2]; 5.0 μg/ml): 69.08* %
- 24 h Inhibition rate (%) HepG2 ([2]; 10.0 μg/ml): 64.39%
- 48 h Inhibition rate (%) HepG2 ([2]; 10.0 μg/ml): 73.67%
- 24 h Inhibition rate (%) A549 ([3]; 2.5 μg/ml): 48.69%
- 48 h Inhibition rate (%) A549 ([3]; 2.5 μg/ml): 51.91%
- 24 h Inhibition rate (%) A549 ([3]; 5.0 μg/ml): 55.78* %
- 48 h Inhibition rate (%) A549 ([3]; 5.0 μg/ml): 59.75* %
- 24 h Inhibition rate (%) A549 ([3]; 10.0 μg/ml): 62.40%
- 48 h Inhibition rate (%) A549 ([3]; 10.0 μg/ml): 69.67% and 69.37* %
- anti-tumor therapeutic index (TI) [4]: 49.3
- anti-tumor therapeutic index (TI) ([4]; listed as CL168): about 49.3
- Large vessels (number of the vessels) (CAM vessels; 2 ug/embryo): 3.5 ± 1.8
- Middle vessels (number of the vessels) (CAM vessels; 2 ug/embryo): 13.2 ± 3.7
- Small vessels (number of the vessels) (CAM vessels; 2 ug/embryo): 8.8 ± 2.3
- Large vessels (number of the vessels) (CAM vessels; 4 ug/embryo): 3.6 ± 1.9
- Middle vessels (number of the vessels) (CAM vessels; 4 ug/embryo): 11.2 ± 3.2
- Small vessels (number of the vessels) (CAM vessels; 4 ug/embryo): 6.5 ± 2.5
- Large vessels (number of the vessels) (CAM vessels; 8 ug/embryo): 2.5 ± 2.0
- Middle vessels (number of the vessels) (CAM vessels; 8 ug/embryo): 12.6 ± 5.6
- Small vessels (number of the vessels) (CAM vessels; 8 ug/embryo): 4.0 ± 2.8
- Animal deaths (ICR mice; 819.2 mg/kg i.p.): 0
- Animal deaths (ICR mice; 1024 mg/kg i.p.): 1
- Animal deaths (ICR mice; 1280 mg/kg i.p.): 3
- Animal deaths (ICR mice; 1600 mg/kg i.p.): 6
- Animal deaths (ICR mice; 2000 mg/kg i.p.): 8
- Death in the 12 hours after administration (ICR mice; 819.2-2000 mg/kg i.p., first 12 hours): no death appeared
- LD50 (ICR mice; [5]): 1479.11 mg/kg and 1479 mg/kg
- LD50 95% confidence interval (ICR mice; [5]): 1304.19 to 1677.49 mg/kg
- OD value of Caspase8 (Caspase 8; 24 h): 0.413
- OD value of Caspase8 (Caspase 8; 48 h): 0.408
- OD value of Caspase9 (Caspase 9; 24 h): 0.156
- OD value of Caspase9 (Caspase 9; 48 h): 0.146
